Where a name gives a salt, the structure may show the parent alone.

The subject of the experiment is Acinetobacter baumannii ATCC17961. Description: Antimicrobial susceptibility testing: 90% growth inhibitory concentration (IC90) determination. The format is cell-based. Particulars: Acinetobacter baumannii, ATCC17961, 16 h, 90% growth inhibitory concentration, Acinetobacter baumannii ATCC17961, Iso-Sensitest broth, OD 600 nm over 16 h; read-out: ATCC 17961 IC90. A digest of the protocol:
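Growth inhibition derived in log phase from OD600 kinetics (every 20 minutes, 16h, 35±2° C) of ATCC17961 in Iso-Sensitest medium, inoculum ~5×10^5 CFU/ml. Compounds tested as twofold series, 10 points (e.g. 50 to 0.097 μM final); IC90 and IC50 reported.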

Take `COCCn1cc(-c2ccc(-c3cnc(C(=O)Nc4ccc(C(=O)N5CCN(C(=O)C6CC[N+](C)(C)CC6)CC5)c(Cl)c4)n3C)c(F)c2F)c(N)n1` [Example F26, 5-[4-[3-amino-1-(2-methoxyethyl)pyrazol-4-yl]-2,3-difluoro-phenyl]-N-[3-chloro-4-[4-(1,1-dimethylpiperidin-1-ium-4-carbonyl)piperazine-1-carbonyl]phenyl]-1-methyl-imidazole-2-carboxamide; formate]: the concentration for an effect of 90% (IC90) – broadly, the concentration needed for an effect of 90% – turned out to be 1.4 µM.

`Cn1c(-c2ccc(-c3c[nH]nc3-c3ccccc3)c(F)c2F)cnc1C(=O)Nc1ccc(C(=O)N2CCN(C(=O)C3CC[N+](C)(C)CC3)CC2)c(Cl)c1` [Example F27, N-[3-chloro-4-[4-(1,1-dimethylpiperidin-1-ium-4-carbonyl)piperazine-1-carbonyl]phenyl]-5-[2,3-difluoro-4-(3-phenyl-1H-pyrazol-4-yl)phenyl]-1-methyl-imidazole-2-carboxamide; formate]: the IC90 came to 0.4 µM.

As for `Cn1c(-c2ccc(-c3cnn4c3CCC4)c(F)c2F)cnc1C(=O)Nc1ccc(C(=O)N2CCN(C(=O)C3CC[N+](C)(C)CC3)CC2)c(Cl)c1` [Example F28, N-[3-chloro-4-[4-(1,1-dimethylpiperidin-1-ium-4-carbonyl)piperazine-1-carbonyl]phenyl]-5-[4-(5,6-dihydro-4H-pyrrolo[1,2-b]pyrazol-3-yl)-2,3-difluoro-phenyl]-1-methyl-imidazole-2-carboxamide; formate], the concentration for an effect of 90% (IC90) amounted to 0.27 µM.

`COCCn1ncc(-c2ccc(-c3cnc(C(=O)Nc4ccc(C(=O)N5CCN(C(=O)C6CC[N+](C)(C)CC6)CC5)c(Cl)c4)n3C)c(F)c2F)c1Cl` [Example F31, N-[3-chloro-4-[4-(1,1-dimethylpiperidin-1-ium-4-carbonyl)piperazine-1-carbonyl]phenyl]-5-[4-[5-chloro-1-(2-methoxyethyl)pyrazol-4-yl]-2,3-difluoro-phenyl]-1-methyl-imidazole-2-carboxamide; formate]: the IC90 was 0.067 µM.

Turning to `Cn1c(-c2ccc(-c3cn(CCS(C)(=O)=O)nc3C(F)(F)F)c(F)c2F)cnc1C(=O)Nc1ccc(C(=O)N2CCN(C(=O)C3CC[N+](C)(C)CC3)CC2)c(Cl)c1` [Example F32, N-[3-chloro-4-[4-(1,1-dimethylpiperidin-1-ium-4-carbonyl)piperazine-1-carbonyl]phenyl]-5-[2,3-difluoro-4-[1-(2-methylsulfonylethyl)-3-(trifluoro-methyl)pyrazol-4-yl]phenyl]-1-methyl-imidazole-2-carboxamide; formate], the IC90 was 0.58 µM.

Regarding `CC(O)Cn1cc(-c2ccc(-c3cnc(C(=O)Nc4ccc(C(=O)N5CCN(C(=O)C6CC[N+](C)(C)CC6)CC5)c(Cl)c4)n3C)c(F)c2F)c(C(F)(F)F)n1` (stereo not shown) [Example F33, N-[3-chloro-4-[4-(1,1-dimethylpiperidin-1-ium-4-carbonyl)piperazine-1-carbonyl]phenyl]-5-[2,3-difluoro-4-[1-(2-hydroxypropyl)-3-(trifluoromethyl)pyrazol-4-yl]phenyl]-1-methyl-imidazole-2-carboxamide; formate], the 90% effect concentration (IC90) is 0.36 µM.

Regarding `Cn1c(-c2ccc(-c3cn(CCCC(N)=O)nc3C(F)(F)F)c(F)c2F)cnc1C(=O)Nc1ccc(C(=O)N2CCN(C(=O)C3CC[N+](C)(C)CC3)CC2)c(Cl)c1` [Example F34, 5-[4-[1-(4-amino-4-oxo-butyl)-3-(trifluoro-methyl)pyrazol-4-yl]-2,3-difluoro-phenyl]-N-[3-chloro-4-[4-(1,1-dimethylpiperidin-1-ium-4-carbonyl)piperazine-1-carbonyl]phenyl]-1-methyl-imidazole-2-carboxamide; formate], the concentration for an effect of 90% (IC90) worked out at 0.23 µM.

Regarding `COCCn1cc(-c2ccc(-c3cnc(C(=O)Nc4ccc(C(=O)N5CCN(C(=O)C6CC[N+](C)(C)CC6)CC5)c(Cl)c4)n3C)c(F)c2F)c(C(F)(F)F)n1` [Example F36, N-[3-chloro-4-[4-(1,1-dimethylpiperidin-1-ium-4-carbonyl)piperazine-1-carbonyl]phenyl]-5-[2,3-difluoro-4-[1-(2-methoxyethyl)-3-(trifluoromethyl)pyrazol-4-yl]phenyl]-1-methyl-imidazole-2-carboxamide; formate], the IC90 was 0.58 µM.

As for `Cn1c(-c2ccc(-c3cnn(CCN4CCOCC4)c3C(F)(F)F)c(F)c2F)cnc1C(=O)Nc1ccc(C(=O)N2CCN(C(=O)C3CC[N+](C)(C)CC3)CC2)c(Cl)c1` [Example F37, N-[3-chloro-4-[4-(1,1-dimethylpiperidin-1-ium-4-carbonyl)piperazine-1-carbonyl]phenyl]-5-[2,3-difluoro-4-[1-(2-morpholinoethyl)-5-(trifluoromethyl)pyrazol-4-yl]phenyl]-1-methyl-imidazole-2-carboxamide; formate], the concentration for an effect of 90% (IC90) is 0.69 µM.

In the case of `COCCCn1cc(-c2ccc(-c3cnc(C(=O)Nc4ccc(C(=O)N5CCN(C(=O)C6CC[N+](C)(C)CC6)CC5)c(Cl)c4)n3C)c(F)c2F)c(C(F)(F)F)n1` [Example F38, N-[3-chloro-4-[4-(1,1-dimethylpiperidin-1-ium-4-carbonyl)piperazine-1-carbonyl]phenyl]-5-[2,3-difluoro-4-[1-(3-methoxypropyl)-3-(trifluoromethyl)pyrazol-4-yl]phenyl]-1-methyl-imidazole-2-carboxamide; formate], the IC90 was 0.76 µM.

Consider `Cc1nn(CC2CCOCC2)cc1-c1ccc(-c2cnc(C(=O)Nc3ccc(C(=O)N4CCN(C(=O)C5CC[N+](C)(C)CC5)CC4)c(Cl)c3)n2C)c(F)c1F` [Example F39, N-[3-chloro-4-[4-(1,1-dimethylpiperidin-1-ium-4-carbonyl)piperazine-1-carbonyl]phenyl]-5-[2,3-difluoro-4-[3-methyl-1-(tetrahydropyran-4-ylmethyl)pyrazol-4-yl]phenyl]-1-methyl-imidazole-2-carboxamide; formate], for which the IC90 came to 0.34 µM.

Regarding `Cc1nn(-c2ccc(N)cn2)cc1-c1ccc(-c2cnc(C(=O)Nc3ccc(C(=O)N4CCN(C(=O)C5CC[N+](C)(C)CC5)CC4)c(Cl)c3)n2C)c(F)c1F` [Example F40, 5-[4-[1-(5-amino-2-pyridyl)-3-methyl-pyrazol-4-yl]-2,3-difluoro-phenyl]-N-[3-chloro-4-[4-(1,1-dimethylpiperidin-1-ium-4-carbonyl)piperazine-1-carbonyl]phenyl]-1-methyl-imidazole-2-carboxamide; chloride], the IC90 worked out at 0.61 µM.

For `Cc1nn(Cc2ccccn2)cc1-c1ccc(-c2cnc(C(=O)Nc3ccc(C(=O)N4CCN(C(=O)C5CC[N+](C)(C)CC5)CC4)c(Cl)c3)n2C)c(F)c1F` [Example F41, N-[3-chloro-4-[4-(1,1-dimethylpiperidin-1-ium-4-carbonyl)piperazine-1-carbonyl]phenyl]-5-[2,3-difluoro-4-[3-methyl-1-(2-pyridylmethyl)pyrazol-4-yl]phenyl]-1-methyl-imidazole-2-carboxamide; formate], the IC90 came out at 0.15 µM.

`Cc1nn(-c2cn[nH]c2)cc1-c1ccc(-c2cnc(C(=O)Nc3ccc(C(=O)N4CCN(C(=O)C5CC[N+](C)(C)CC5)CC4)c(Cl)c3)n2C)c(F)c1F` [Example F42, N-[3-chloro-4-[4-(1,1-dimethylpiperidin-1-ium-4-carbonyl)piperazine-1-carbonyl]phenyl]-5-[2,3-difluoro-4-[3-methyl-1-(1H-pyrazol-4-yl)pyrazol-4-yl]phenyl]-1-methyl-imidazole-2-carboxamide; formate]: the 90% effect concentration (IC90) turned out to be 0.21 µM.

On to `Cc1nn(Cc2ccc(N)cn2)cc1-c1ccc(-c2cnc(C(=O)Nc3ccc(C(=O)N4CCN(C(=O)C5CC[N+](C)(C)CC5)CC4)c(Cl)c3)n2C)c(F)c1F` [Example F43, 5-[4-[1-[(5-amino-2-pyridyl)methyl]-3-methyl-pyrazol-4-yl]-2,3-difluoro-phenyl]-N-[3-chloro-4-[4-(1,1-dimethylpiperidin-1-ium-4-carbonyl)piperazine-1-carbonyl]phenyl]-1-methyl-imidazole-2-carboxamide; chloride], for which the concentration for an effect of 90% (IC90) turned out to be 0.57 µM.

For the molecule `Cn1nccc1-c1n[nH]cc1-c1ccc(-c2cnc(C(=O)Nc3ccc(C(=O)N4CCN(C(=O)C5CC[N+](C)(C)CC5)CC4)c(Cl)c3)n2C)c(F)c1F` [Example F44, N-[3-chloro-4-[4-(1,1-dimethylpiperidin-1-ium-4-carbonyl)piperazine-1-carbonyl]phenyl]-5-[2,3-difluoro-4-[3-(2-methylpyrazol-3-yl)-1H-pyrazol-4-yl]phenyl]-1-methyl-imidazole-2-carboxamide; formate], the 90% effect concentration (IC90) came to 0.73 µM.

`Cn1c(-c2ccc(-c3c[nH]nc3-c3cccc(F)c3)c(F)c2F)cnc1C(=O)Nc1ccc(C(=O)N2CCN(C(=O)C3CC[N+](C)(C)CC3)CC2)c(Cl)c1` [Example F45, N-[3-chloro-4-[4-(1,1-dimethylpiperidin-1-ium-4-carbonyl)piperazine-1-carbonyl]phenyl]-5-[2,3-difluoro-4-[3-(3-fluorophenyl)-1H-pyrazol-4-yl]phenyl]-1-methyl-imidazole-2-carboxamide; formate]: the 90% effect concentration (IC90) stood at 0.31 µM.

As to `Cc1nn(CCn2ccccc2=O)cc1-c1ccc(-c2cnc(C(=O)Nc3ccc(C(=O)N4CCN(C(=O)C5CC[N+](C)(C)CC5)CC4)c(Cl)c3)n2C)c(F)c1F` [Example F46, N-[3-chloro-4-[4-(1,1-dimethylpiperidin-1-ium-4-carbonyl)piperazine-1-carbonyl]phenyl]-5-[2,3-difluoro-4-[3-methyl-1-[2-(2-oxo-1-pyridyl)ethyl]pyrazol-4-yl]phenyl]-1-methyl-imidazole-2-carboxamide; formate], the IC90 came out at 1.1 µM.

Regarding `Cn1cc(-c2n[nH]cc2-c2ccc(-c3cnc(C(=O)Nc4ccc(C(=O)N5CCN(C(=O)C6CC[N+](C)(C)CC6)CC5)c(Cl)c4)n3C)c(F)c2F)cn1` [Example F47, N-[3-chloro-4-[4-(1,1-dimethylpiperidin-1-ium-4-carbonyl)piperazine-1-carbonyl]phenyl]-5-[2,3-difluoro-4-[3-(1-methylpyrazol-4-yl)-1H-pyrazol-4-yl]phenyl]-1-methyl-imidazole-2-carboxamide; formate], the IC90 turned out to be 0.53 µM.

Values taken from patent US12421211B2, “Heterocyclic compounds” (Hoffmann-La Roche Inc., priority 2021, dated 2025).
